Results reported in US8242145B2, “Cyclic diaryl ether compounds as antagonists of prostaglandin D2 receptors” (Panmira Pharmaceuticals, LLC, priority 2008, dated 2012).

Columns and labels:
human DP2 receptor = biological target: T1, human DP2 receptor (Homo sapiens, UniProt Q9Y5Y4); assay: DP2/CRTH2 radioligand binding assay using [3H]PGD2; details: hDP2 (CRTH2) binding assay
T1 construct: expressed in transfected cells
T1 sequence (Q9Y5Y4 1-395): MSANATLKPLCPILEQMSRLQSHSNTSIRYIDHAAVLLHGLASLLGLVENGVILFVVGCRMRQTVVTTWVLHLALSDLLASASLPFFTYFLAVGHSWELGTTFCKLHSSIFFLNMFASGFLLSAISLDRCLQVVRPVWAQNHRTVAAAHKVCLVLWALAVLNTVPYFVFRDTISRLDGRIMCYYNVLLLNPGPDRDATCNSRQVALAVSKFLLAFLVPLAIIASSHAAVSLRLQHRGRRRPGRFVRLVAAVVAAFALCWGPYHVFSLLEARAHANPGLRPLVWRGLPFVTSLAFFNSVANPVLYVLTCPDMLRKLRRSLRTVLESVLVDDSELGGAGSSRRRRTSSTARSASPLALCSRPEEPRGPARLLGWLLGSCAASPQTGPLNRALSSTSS
Procedure, shortened: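 HEK293 membranes with stable recombinant human DP2, incubated with 1 nM [3H]PGD2 and compound 60 min at room temperature in pH 7.4 HEPES/MnCl2/EDTA buffer, with or without 0.2% human serum albumin.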

[1] = biological target: T2, recombinant human CRTH2 receptor (Homo sapiens, UniProt Q9Y5Y4); assay: GTPγS binding assay; format: biochemical; details: +HSA; read-out: hDP2 GTPγS μM (+HSA)
T2 construct: expressed in transfected cells
T2 sequence (Q9Y5Y4 1-395): T1 sequence (Q9Y5Y4 1-395)
Procedure, shortened: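 Membranes from CHO cells stably expressing recombinant receptor (~12.5 μg/well), incubated 60 min at 30° C with 0.05 nM [^35S]-GTPγS, 80 nM PGD2, 5 μM GDP in pH 7.4 Hepes buffer with 0.2% human serum albumin. Filter-bound radioactivity counted; specific binding = total minus binding without PGD2; IC50 from titration curves.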

human DP1 receptor = biological target: T3, human DP1 receptor (Homo sapiens, UniProt Q13258); assay: DP1 radioligand binding assay using [3H]BWA868C; details: hDP1 binding
T3 construct: tissue Biological Specialty Corporation; host or cells: human platelets, membranes
T3 sequence (Q13258 1-359): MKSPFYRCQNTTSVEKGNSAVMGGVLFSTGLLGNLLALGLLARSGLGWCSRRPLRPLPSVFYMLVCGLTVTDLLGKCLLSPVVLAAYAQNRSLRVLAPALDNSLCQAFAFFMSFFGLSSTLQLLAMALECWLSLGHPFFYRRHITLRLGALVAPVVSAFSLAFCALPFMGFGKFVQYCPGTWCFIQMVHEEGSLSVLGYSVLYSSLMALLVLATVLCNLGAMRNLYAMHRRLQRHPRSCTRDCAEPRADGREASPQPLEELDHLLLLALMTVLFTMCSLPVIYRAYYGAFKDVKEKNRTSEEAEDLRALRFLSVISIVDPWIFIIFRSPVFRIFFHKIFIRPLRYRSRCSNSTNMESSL
Procedure, shortened: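 Human platelet membranes (20 μg protein/well) incubated 60 min at room temperature with 2 nM [3H]BWA868C in 50 mM Hepes, 10 mM MnCl2, 1 mM EDTA, ±0.2% human serum albumin, pH 7.4. Bound label measured after filtration; nonspecific binding defined with 10 μM BW A868C. IC50 from titration curves.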

Compound	IC50 (human DP2 receptor)	IC50 [1]	IC50 (human DP1 receptor)
CC(C(=O)O)c1cccc(Oc2ccc(C(F)(F)F)cc2CN2CCOC2=O)c1 (stereo not drawn) [Compound 1-10, 2-{3-[2-(2-Oxo-oxazolidin-3-ylmethyl)-4-trifluoromethyl-phenoxy]-phenyl}-propionic acid]	< 300 nM	> 1 µM	> 1000 nM
C[C@@H]1[C@H](c2ccccc2)OC(=O)N1Cc1cc(Br)ccc1Oc1cc(Cl)cc(CC(=O)O)c1 [Compound 1-56, {3-[4-Bromo-2-((4R,5S)-4-methyl-2-oxo-5-phenyl-oxazolidin-3-ylmethyl)-phenoxy]-5-chloro-phenyl}-acetic acid]	< 300 nM	< 0.3 µM	> 1000 nM
O=C(O)Cc1cccc(Oc2ccc(Br)cc2CN2C(=O)OC[C@@H]2Cc2ccccc2)c1 [Compound 1-46, {3-[2-((S)-4-Benzyl-2-oxo-oxazolidin-3-ylmethyl)-4-bromo-phenoxy]-phenyl}-acetic acid]	< 300 nM	< 0.3 µM	> 1000 nM
C[C@@H]1[C@H](c2ccccc2)OC(=O)N1Cc1cc(Br)ccc1Oc1cc(CC(=O)O)cc(C(F)(F)F)c1 [Compound 1-57, {3-[4-Bromo-2-((4R,5S)-4-methyl-2-oxo-5-phenyl-oxazolidin-3-ylmethyl)-phenoxy]-5-trifluoromethyl-phenyl}-acetic acid]	< 300 nM	< 0.3 µM	> 1000 nM
Cn1cc(-c2ccc(Oc3cccc(CC(=O)O)c3)c(CN3CCOC3=O)c2)cn1 [Compound 1-84, {3-[4-(1-Methyl-1H-pyrazol-4-yl)-2-(2-oxo-oxazolidin-3-ylmethyl)-phenoxy]-phenyl}-acetic acid]	300 to 1000 nM	0.3 to 1 µM	> 1000 nM
C[C@H]1[C@@H](c2ccccc2)OC(=O)N1Cc1cc(Br)ccc1Oc1cc(CC(=O)O)cc(C(F)(F)F)c1 [Compound 1-28, {3-[4-Bromo-2-((4S,5R)-4-methyl-2-oxo-5-phenyl-oxazolidin-3-ylmethyl)-phenoxy]-5-trifluoromethyl-phenyl}-acetic acid]	< 300 nM	< 0.3 µM	> 1000 nM

Now from value to compound:

IC50 (human DP2 receptor)	IC50 [1]	IC50 (human DP1 receptor)	Compound
< 300 nM	< 0.3 µM	> 1000 nM	COc1ccc(CC(=O)O)cc1Oc1ccc(C(F)(F)F)cc1CN1C(=O)O[C@H](c2ccccc2)[C@@H]1C [Compound 1-32, {4-Methoxy-3-[2-((4S,5R)-4-methyl-2-oxo-5-phenyl-oxazolidin-3-ylmethyl)-4-trifluoromethyl-phenoxy]-phenyl}-acetic acid]
< 300 nM	0.3 to 1 µM	> 1000 nM	CCNC(=O)c1ccc(Oc2cc(CC(=O)O)ccc2OC)c(CN2C(=O)O[C@@H](c3ccccc3)[C@H]2C)c1 [Compound 1-65, {3-[4-Ethylcarbamoyl-2-((4R,5S)-4-methyl-2-oxo-5-phenyl-oxazolidin-3-ylmethyl)-phenoxy]-4-methoxy-phenyl}-acetic acid]
< 300 nM	< 0.3 µM	> 1000 nM	C[C@@H]1[C@H](c2ccccc2)OC(=O)N1Cc1cc(C(F)(F)F)ccc1Oc1cc(CC(=O)O)ccc1O [Compound 1-78, {4-Hydroxy-3-[2-((4R,5S)-4-methyl-2-oxo-5-phenyl-oxazolidin-3-ylmethyl)-4-trifluoromethyl-phenoxy]-phenyl}-acetic acid]
< 300 nM	< 0.3 µM	> 1000 nM	C[C@H]1[C@@H](c2ccccc2)OC(=O)N1Cc1cc(C(F)(F)F)ccc1Oc1cc(CC(=O)O)ccc1OCc1ccccc1 [Compound 1-33, {4-Benzyloxy-3-[2-((4S,5R)-4-methyl-2-oxo-5-phenyl-oxazolidin-3-ylmethyl)-4-trifluoromethyl-phenoxy]-phenyl}-acetic acid]
< 300 nM	< 0.3 µM	> 1000 nM	COc1ccc(CC(=O)O)cc1Oc1ccc(Cl)cc1CN1C(=O)O[C@@H](c2ccccc2)[C@H]1C [Compound 1-59, {3-[4-Chloro-2-((4R,5S)-4-methyl-2-oxo-5-phenyl-oxazolidin-3-ylmethyl)-phenoxy]-4-methoxy-phenyl}-acetic acid]
< 300 nM	0.3 to 1 µM	> 1000 nM	COc1ccc(CC(=O)O)cc1Oc1ccc(-c2ccncc2)cc1CN1C(=O)O[C@H](c2ccccc2)[C@@H]1C [Compound 1-41, {4-Methoxy-3-[2-((4S,5R)-4-methyl-2-oxo-5-phenyl-oxazolidin-3-ylmethyl)-4-pyridin-4-yl-phenoxy]-phenyl}-acetic acid]
